Results as given in patent publication US20260021119A1, “TETRACYCLINE DERIVATIVES” (ICM (INSTITUT DU CERVEAU ET DE LA MOELLE ÉPINIÈRE), priority 2022, published 2026).

Tests used:
[1] = test system: microglia cells (TNF α release under LPS); experiment: Anti-inflammatory effect in microglia, TNF α release inhibition under LPS exposure; format: cell-based; conditions: for Anti inflammatory effects (IC 50 in μM): TNF α release inhibition under LPS exposure, determined graphically
Method: Microglia is in charge of the protection of the neurons. However, under stress conditions, microglia cells are responsible of inflammatory phenomena, leading eventually to the death of the neurons. The anti-inflammatory effects of 5 μM and 20 μM of compound of formula (B) presented in Example 1, of 5 μM and 20 μM of compound of formula (Ia) according to the present invention and of 50 μM of doxycycline (DOX) were evaluated, compared to the effect of 2.5 μM of dexamethasone (DEX). Microglia is in charge of the protection of the neurons. However, under stress conditions, microglia cells are responsible of inflammatory phenomena, leading eventually to the death of the neurons. The anti-inflammatory effects of 10 μM and 20 μM of compound of formula (C) (“10 μM (C)” and “20 μM (C)”) and of 10 μM and 20 μM of compound of formula (Ia) according to the present invention (“10 μM (Ia)” and “20 μM (Ia)”) were evaluated, compared to the effect of 2.5 μM of dexamethasone (“DEX”). The properties of tetracycline derivatives, including the compound of formula (Ia) according to the present invention, were compared regarding the neuroprotection, anti-inflammatory effects, anti-aggregant activity, and antibiotic activity. The properties were evaluated as described herein above. EC50s, IC50s determined graphically, *Rescue of dopamine neurons from spontaneous oxidative stress; ** TNF α release inhibition under LPS exposure, ^#Weak antibiotic activity on only 1 of the 3 bacterial strains (i.e. S aureus). ##Strong antibiotic activity on all 3 bacterial strains. ^###Significant antibiotic activity on two bacterial strains.

alpha-synuclein = alpha-synuclein (Homo sapiens, UniProt P37840); experiment: alpha-synuclein aggregation, thioflavin T (ThT) fluorescence; format: biochemical
Method: The antiaggregant effect of the compound of formula (Ia) according to the present invention on alpha-synuclein (αS) was evaluated in vitro by measuring the fluorescence intensity of the probe thioflavin T (ThT), a molecule that specifically binds to cross-β structures characteristic of amyloid-like aggregation. The compound of formula (Ia) was dissolved in dimethylsulfoxide to reach a concentration of […]. In this assay, 70 μM of alpha-synuclein was incubated with and without 10 μM, 20 μM and 50 μM of the compound of formula (Ia), under orbital agitation (600 rpm), at 37° C., for 5 days. After the incubation time, Tht was added to each sample and changes in the emission fluorescence spectra (λex=450 and λem=[…]) was monitored using a Horiba Fluoromax CP4 spectrofluorometer.

[2] = test system: dopaminergic neurons (TH+ neurons); experiment: Neuroprotection: rescue of dopamine neurons from spontaneous oxidative stress in primary cultures; format: cell-based; conditions: for EC50: Neuron, rescue of dopamine neurons from spontaneous oxidative stress, determined graphically, read-out: Neuroprotection (EC 50 μM)
Method: In primary cultures of dopaminergic neurons, TH+ neurons suffer from oxidative stress, leading to the death of the neurons after a few days. When cultured in the presence of a positive reference (apotransferrin), the dopaminergic neurons survive. The neuroprotective effects of 10 μM of doxycycline (DOX) and of 3 μM or 5 μM of the compound of formula (Ia) according to the present invention were evaluated, compared to the effect of 100 μg/mL of apotransferrin (APO).
(§1) The properties of tetracycline derivatives, including the compound of formula (Ia) according to the present invention, were compared regarding the neuroprotection, anti-inflammatory effects, anti-aggregant activity, and antibiotic activity. The properties were evaluated as described herein above.
(§2) EC50s, IC50s determined graphically, *Rescue of dopamine neurons from spontaneous oxidative stress; ** TNF α release inhibition under LPS exposure, ^#Weak antibiotic activity on only 1 of the 3 bacterial strains (i.e. S aureus). ##Strong antibiotic activity on all 3 bacterial strains. ^###Significant antibiotic activity on two bacterial strains.

[3] = Brain penetration after single subcutaneous injection; format: in vivo; conditions: mouse, brain and serum, sc; 40 mg/kg single subcutaneous injection, Swiss mice, 30 min to 24 h, n=3; read-out: brain-to-plasma ratio calculated from the area under the concentration time curves
Method: Adult Swiss mice received a single subcutaneous injection of 40 mg/kg of the compound of formula (Ia) according to the present invention, the compound of formula (C), or doxycycline diluted in saline with 5% DMSO and 5% Tween 80 (doxycycline was used as a reference tetracycline). The mice were sacrificed 30 min, 1 h, 8 h, and 24 h after treatment. After sacrifice, brain and serum samples were collected and processed at each time point for tetracycline dosage, using an UHPLC system coupled with a triple quadrupole mass spectrometer LCMS-8030 (Shimadzu Corporation, Kyoto, Japan).

[4] = test system: Gram+ and Gram- bacteria (S. aureus, E. coli, E. faecalis, P. aeruginosa); experiment: Antibiotic activity, summary over the bacterial strains (Examples 3 and 7); format: cell-based; parameters: activity against Gram+ and Gram− bacteria: dose or concentration left out as unconfirmed; key to Antibiotic activity: low: Weak antibiotic activity on only 1 of the 3 bacterial strains (i.e. S aureus); high: Strong antibiotic activity on all 3 bacterial strains; Significant antibiotic activity on two bacterial strains
Method: Bacterial strains used in this study were: S. aureus (ATCC25923), E. coli (ATCC25922), E. faecalis (ATCC29212) and P. aeruginosa (PA01). Strains were maintained at −80° C. in 15% (v/v) glycerol for cryoprotection. Bacteria were routinely grown in Mueller-Hinton (MH) broth at 37° C.
The susceptibility of bacterial strains to antibiotics and compounds was determined in microplates using the standard broth dilution method in accordance with the recommendations of the Comité de 1′Antibiogramme de la Société Française de Microbiologie (CA-SFM). (Members of the SFM Antibiogram Committee, R. Int. J. Antimicrob. Agents 2003, 21, 364). Briefly, the Minimal Inhibitory Concentrations (MICs) were determined with an inoculum of 10^5 CFU in 200 μL of MH broth containing two-fold serial dilutions of each drug. […] To determine all MICs, the measurements were independently repeated in triplicate.
The compound of formula (Ia) according to the invention was tested against clinical isolates Gram-bacteria (P. aeruginosa, E. coli) and Gram+ bacteria (S. aureus, E. faecalis). Minimum inhibitory concentrations (MIC) were tentatively determined and compared to known antibiotic tetracyclines (doxycycline, demeclocycline, chlortetracycline) and to the compound of formula (B) disclosed in Example 1 of the present application. The test was reproduced twice and the average MIC were calculated.
as §1, §2

[5] = 10 μM and 20 μM, compared to dexamethasone 2.5 μM

NC(=O)C1=C(O)CC2CC3C(=C(O)C2C1=O)C(=O)c1c(O)ccc(Cl)c1[C@H]3O (stereo partly drawn) [Compound of formula (C)]
anti-inflammatory effect (LPS) [1, 5]: unable to counteract the inflammatory process
Anti inflammatory effects (IC 50 in μM) [1]: no
Anti aggregant activity at 20 μM (alpha-synuclein): yes
EC50 [2]: 0.81 µM
Kp [3]: 0.27 ± 0.13
Antibiotic activity ([4]; summary over bacterial strains): low^#

C[C@H]1c2cccc(O)c2C(=O)C2=C(O)C3C(=O)C(C(N)=O)=C(O)C[C@@H]3[C@@H](O)[C@@H]21 (stereo partly drawn) [Compound of formula (Ia), (4aS,5R,5aR,6R)-3,5,10,12-tetrahydroxy-6-methyl-1,11-dioxo-1,4,4a,5,5a,6,11,12a-octahydrotetracene-2-carboxamide]
anti-inflammatory effect (LPS) ([1]; 5 μM and 20 μM, superior to doxycycline 50 μM and compound of formula (B)): counteracts inflammatory process
anti-inflammatory effect (LPS) [1, 5]: counteracts inflammatory process
Anti inflammatory effects (IC 50 in μM) [1]: yes
inhibition of alpha-synuclein aggregation (ThT fluorescence) (alpha-synuclein; 10 μM, 20 μM and 50 μM compound, 70 μM alpha-synuclein, 37° C., 5 days, vs control, dose dependent): significantly inhibits
Anti aggregant activity at 20 μM (alpha-synuclein): yes
neuroprotective effect ([2]; 3 μM and 5 μM, compared to apotransferrin 100 μg/mL): highly protective
EC50 [2]: 1.58 µM
Kp [3]: 0.21 ± 0.05
activity against Gram+ and Gram− bacteria [4]: did not show any activity
